Data reported in article PMC11843613, “Further Optimization of the mGlu1 PAM VU6024578/BI02982816: Discovery and Characterization of VU6033685” (ACS Chemical Neuroscience, 2025).

Legend:
[1] = Unbound fraction in brain (rat); assay type: in vitro ADME; conditions: read-out: fu brain (rat)
[2] = Plasma protein binding, equilibrium dialysis (human); assay type: in vitro ADME; conditions: pH 7.4, human plasma, read-out: fu plasma (h)
Method: page 13: at half log concentrations in DMSO were further diluted in assay buffer. The compounds or DMSO vehicle were added to cells and incubated for 2.5 min and an EC20 concentration of glutamate was added and incubated for 1 min. An ECmax concentration of glutamate was also added to cells that were incubated with DMSO vehicle to accurately calculate the EC20 calcium response. Data were normalized by subtracting the basal florescent peak before EC20 agonist addition from the maximal peak elicited by EC20 agonist and PAMs. Using GraphPad Prism 5.0, the concentration response curves were generated and the potencies of the mGlu1 PAMs were determined. DMPK Methods Plasma protein binding: The protein binding of each compound was determined in plasma via equilibrium dialysis employing RED Plates (ThermoFisher Scientific, Rochester, NY). Plasma was added to the 96 well plate containing test compound and mixed thoroughly for a final concentration of 5 µM. Subsequently, an aliquot of the plasma-compound mixture was transferred to the cis chamber (red) of the RED plate, with an phosphate buffer (25 mM, pH 7.4) in the trans chamber. The RED plate was sealed and incubated for 4 hours at 37°C with shaking. At completion, aliquots from each chamber were diluted 1:1 with either plasma (cis) or buffer (trans) and transferred to a new 96 well plate, at which time ice-cold acetonitrile containing internal standard (50 ng/mL carbamazepine) (2 volumes) was added to extract the matrices. The plate was centrifuged (3000 rcf, 10 min) and supernatants transferred and diluted 1:1 (supernatant: water) into a new 96 well plate, which was then sealed in preparation for LC/MS/MS analysis. Each compound was assayed in triplicate within the same 96-well plate. Fraction unbound was determined using the following equation F = Concbuffer u Conc plasma Intrinsic clearance: Human or rat hepatic microsomes (0.5 mg/mL) and 1 µM test compound were incubated in 100 mM potassium phosphate pH 7.4 buffer with 3 mM MgCl2 at 37°C with constant shaking. After a 5 min preincubation, the reaction was initiated by addition of NADPH (1 mM). At selected time intervals (0, 3, 7, 15, 25, and 45 min), aliquots were taken and subsequently placed into a 96-well plate containing cold acetonitrile with internal standard (50 ng/mL carbamazepine). Plates were then centrifuged at 3000 rcf (4° C) for 10 min, and the supernatant was transferred to a separate 96-well plate and diluted 1:1 with water for LC/MS/MS analysis. The in vitro half-life (T 1/2, min, Eq. 1), intrinsic clearance (CLint, mL/min/kg, Eq. 2) and subsequent predicted hepatic clearance (CLhep, mL/min/kg, Eq. 3) was determined S13

rat mGlu1 = rat mGlu1 (Rattus norvegicus, UniProt P23385); test: mGlu1 PAM functional assay (rat); assay type: cell-based
[3] = Predicted hepatic clearance from hepatic microsomes (human); assay type: in vitro ADME
Method: (§1) Intrinsic clearance: Human or rat hepatic microsomes (0.5 mg/mL) and 1 µM test compound were incubated in 100 mM potassium phosphate pH 7.4 buffer with 3 mM MgCl2 at 37°C with constant shaking.
(§2) After a 5 min preincubation, the reaction was initiated by addition of NADPH (1 mM). At selected time intervals (0, 3, 7, 15, 25, and 45 min), aliquots were taken and subsequently placed into a 96-well plate containing cold acetonitrile with internal standard (50 ng/mL carbamazepine). Plates were then centrifuged at 3000 rcf (4° C) for 10 min, and the supernatant was transferred to a separate 96-well plate and diluted 1:1 with water for LC/MS/MS analysis. The in vitro half-life (T 1/2, min, Eq. 1), intrinsic clearance (CLint, mL/min/kg, Eq. 2) and subsequent predicted hepatic clearance (CLhep, mL/min/kg, Eq. 3) was determined […]
(§3) employing the following equations: […]
(§4) where k represents the slope from linear regression analysis of the natural log percent remaining of test compound as a function of incubation time
(§5) 0.693 mL incubation 45 mg microsomes 20a gram liver
(§6) (2) CLint = in vitroT x mg microsomes x gram liver x kg body wt […]
(§7) ascale-up factors: of 20 (human) or 45 (rat) […]
(§8) where Qh (hepatic blood flow, mL/min/kg) is 21 (human) or 70 (rat).
(§9) LC/MS/MS Bioanalysis of Samples from Plasma Protein Binding and Intrinsic Clearance Assays. Samples were analyzed on a Thermo Electron TSQ Quantum Ultra triple quad mass spectrometer (San Jose, CA) via electrospray ionization (ESI) with two Themo Electron Accella pumps (San Jose, CA), and a Leap Technologies CTC PAL autosampler (Carrboro, NC). Analytes were separated by gradient elution on a dual column system with two Thermo Hypersil Gold (2.1 x 30 mm, 1.9 µm) columns (San Jose, CA) thermostated at 40°C. HPLC mobile phase A was 0.1% formic acid in water and mobile phase B was 0.1% formic acid in acetonitrile. The gradient […]
(§10) 95% B for 0.2 min; returned to 10% B in 0.1 min. The total run time was 1.3 min and the HPLC flow rate was 0.8 mL/min. While pump 1 ran the gradient method, pump 2 equilibrated the alternate column isocratically at 10% B. Compound optimization, data collection and […]

[4] = Predicted hepatic clearance from hepatic microsomes (rat); assay type: in vitro ADME
Method: as §1, §2, §3, §4, §5, §6, §7, §8, §9, §10

[5] = Rat IV/PO pharmacokinetics; assay type: in vivo; conditions: for clearance / Vd / half-life / Tmax: plasma; for clearance / Vd: rat IV; for clearance: read-out: CLp; for F po / Tmax: rat PO; for Vd / half-life: rat; for Vd: iv, read-out: Vss; for half-life: read-out: Elimination t1/2 (converted)

Chain of rat mGlu1 (P23385 19-1199): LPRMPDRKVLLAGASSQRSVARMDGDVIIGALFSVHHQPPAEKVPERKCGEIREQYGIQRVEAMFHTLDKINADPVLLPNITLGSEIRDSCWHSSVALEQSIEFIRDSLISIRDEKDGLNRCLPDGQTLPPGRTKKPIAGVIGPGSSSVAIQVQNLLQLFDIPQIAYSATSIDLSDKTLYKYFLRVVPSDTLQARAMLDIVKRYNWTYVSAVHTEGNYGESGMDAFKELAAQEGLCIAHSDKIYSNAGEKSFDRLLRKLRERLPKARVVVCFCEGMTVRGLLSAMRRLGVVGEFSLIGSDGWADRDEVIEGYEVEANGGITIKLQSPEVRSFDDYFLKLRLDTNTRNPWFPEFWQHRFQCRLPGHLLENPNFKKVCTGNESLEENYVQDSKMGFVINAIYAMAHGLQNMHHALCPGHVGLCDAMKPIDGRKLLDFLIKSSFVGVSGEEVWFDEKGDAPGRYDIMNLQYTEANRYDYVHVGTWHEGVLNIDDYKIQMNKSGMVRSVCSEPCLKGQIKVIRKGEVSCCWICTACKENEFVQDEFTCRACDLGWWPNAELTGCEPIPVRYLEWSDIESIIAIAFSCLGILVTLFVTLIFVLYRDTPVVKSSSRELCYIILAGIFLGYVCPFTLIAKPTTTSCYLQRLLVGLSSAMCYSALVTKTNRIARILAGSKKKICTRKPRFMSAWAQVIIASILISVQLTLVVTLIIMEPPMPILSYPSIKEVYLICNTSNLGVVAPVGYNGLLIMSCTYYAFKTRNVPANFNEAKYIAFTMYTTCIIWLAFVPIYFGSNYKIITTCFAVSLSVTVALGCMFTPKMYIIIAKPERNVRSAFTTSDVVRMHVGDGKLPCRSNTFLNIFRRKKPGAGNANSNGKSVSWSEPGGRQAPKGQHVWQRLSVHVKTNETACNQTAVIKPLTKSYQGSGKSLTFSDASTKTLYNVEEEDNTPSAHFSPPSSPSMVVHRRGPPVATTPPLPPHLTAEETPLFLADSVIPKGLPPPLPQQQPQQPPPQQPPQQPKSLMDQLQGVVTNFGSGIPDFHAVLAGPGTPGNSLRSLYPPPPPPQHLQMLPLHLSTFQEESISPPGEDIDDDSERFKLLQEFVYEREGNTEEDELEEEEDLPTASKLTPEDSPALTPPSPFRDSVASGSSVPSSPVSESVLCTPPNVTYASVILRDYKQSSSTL

Compound	fraction unbound [1]	fraction unbound at 4 h, 5 µM [2]	EC50 (rat mGlu1) [nM]	rat mGlu1 Glu Max (rat mGlu1) [%]	Predicted CLhep (h) [3] [mL/min/kg]	Predicted CLhep (r) [4] [mL/min/kg]	clearance [5] [mL/min/kg]	F po [5] [%]	Vd [5] [L/kg]	half-life [5] [h]	Tmax [5] [h]
Cn1cc(-c2cc(CNC(=O)c3cc(-c4ccco4)ccc3Cl)n(C)n2)cn1 [compound 4]	0.044	0.063	37	137	15.1	34.2					
Cn1nc(-c2ccnn2C)cc1CNC(=O)c1cc(-n2cccn2)ccc1Cl [compound 5]	0.185	0.143	558	105	4.6	21.4	2.9	45.7	0.63	3	
Cc1nc(C2CC2)ccc1CNC(=O)c1cc(-n2cccn2)ccc1Cl [compound 8]	0.062	0.063	107	94	9.9	46.7	26.4	42.8	5.1	2.1	0.5

Second part, led by results:

fraction unbound [1]	fraction unbound at 4 h, 5 µM [2]	EC50 (rat mGlu1) [nM]	rat mGlu1 Glu Max (rat mGlu1) [%]	Predicted CLhep (h) [3] [mL/min/kg]	Predicted CLhep (r) [4] [mL/min/kg]	clearance [5] [mL/min/kg]	F po [5] [%]	Vd [5] [L/kg]	half-life [5] [h]	Compound	Tmax [5] [h]
0.047	0.037			15.8	47.8	15.3	64	1.64	1.1	Cc1nc2ccccc2cc1CNC(=O)c1cc(-n2cccn2)ccc1Cl [compound 6]	0.5
0.04	0.053			13.3	46.8	8		1	2.1	Cc1nc2c(F)cccc2cc1CNC(=O)c1cc(-n2cccn2)ccc1Cl [compound 7]	
